Results published in patent publication US20120095022A1, “DERIVATIVES OF 10-AMINO-1,2,3,4-TETRAHYDROPYRIDO[2,1-A]ISOINDOL-6(10BH)-ONES, METHOD FOR PREPARATION THEREOF AND THERAPEUTIC USES THEREOF” (UNIVERSITE D'ORLEANS, priority 2009, published 2012).

Experiments:
[1] = tested on: Huh7 (liver); experiment: Cytotoxicity on human cells, automated nuclei counting: Huh7; format: cell-based; details: Huh-7, exposed 24 h to 48 h, 0.1 to 25 μM
In short: (§1)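 Seed 4.10^3 cells/well; incubate 24 h, 37° C, 5% CO2, DMEM or RPMI with 10% FCS. Add test molecules at increasing concentrations (DMSO controls ≤1%). Analyse by automated imaging.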

[2] = molecular target: CDK1/cyclin B; experiment: CDK1/cyclin B kinase inhibition (33P-ATP, histone H1); format: biochemical, sea star; details: buffer C, 30° C., 15 μM ATP, read-out: IC50 μM Kinases CDK1
Procedure: The protein kinase inhibition activities of the compounds of the invention are tested according to the following general procedure:
Buffer C: 60 mM β-glycerophosphate, 15 mM p-nitrophenyl-phosphate, 25 mM Mops (pH 7.2), 5 mM EGTA, 15 mM mgCl2, 1 mM DTT, 1 mM sodium vanadate and 1 mM phenylphosphate.
The controls were made with suitable dilutions of DMSO.
ATP (3.000 Ci/mmol.; 10 mCi/mL) in a final volume of 30 μL. After 30 mins of incubation at 30° C., 25 μL of supernatant aliquots were deposited on phosphocellulose Whatman P81 paper pieces of 2.5×3 cm, and after 20 seconds, the filters were washed five times (for at least 5 minutes each time) in a solution of 10 mL of phosphoric acid/1 litre of water. The wet filters were counted in the presence of 1 mL of scintillation fluid ACS (Amersham).

[3] = tested on: MDA-MB 231 (breast); experiment: Cytotoxicity on human cells, automated nuclei counting: MDA-MB 231; format: cell-based; details: MDA-MB 231 cells, exposed 24 h to 48 h, 0.1 to 25 μM
In short: as §1

[4] = tested on: fibroblast; experiment: Cytotoxicity on human cells, automated nuclei counting: fibroblast; format: cell-based; details: exposed 24 h to 48 h, 0.1 to 25 μM
In short: as §1

[5] = molecular target: T1, CDK5/D25 (Homo sapiens, UniProt Q00535); experiment: CDK5 kinase inhibition (33P-ATP, histone H1); format: biochemical; details: buffer C, 30° C., 15 μM ATP, read-out: IC50 μM Kinases CDK5
T1 construct: made in house
In short: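 Kinase reactions ran in buffer C (25 mM Mops pH 7.2, 15 mM MgCl2, 1 mM DTT, phosphatase inhibitors) with [33P]-ATP for 30 min at 30° C. Phosphorylated substrate was captured on P81 phosphocellulose filters, washed in phosphoric acid and counted by scintillation.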

[6] = tested on: NCI (lung); experiment: Cytotoxicity on human cells, automated nuclei counting: NCI; format: cell-based; details: exposed 24 h to 48 h, 0.1 to 25 μM
In short: as §1

[7] = molecular target: GSK-3αβ; experiment: GSK-3 kinase inhibition (GS-1 substrate); details: read-out: IC50 μM Kinases GSK3, buffer A, 30° C., 15 μM ATP
[8] = tested on: PC3 (prostate); experiment: Cytotoxicity on human cells, automated nuclei counting: PC3; format: cell-based; details: PC-3, exposed 24 h to 48 h, 0.1 to 25 μM
In short: as §1

[9] = tested on: Caco (colon); experiment: Cytotoxicity on human cells, automated nuclei counting: Caco; format: cell-based; details: exposed 24 h to 48 h, 0.1 to 25 μM
In short: as §1

[10] = tested on: HCT 116 (colon); experiment: Cytotoxicity on human cells, automated nuclei counting: HCT 116; format: cell-based; details: HCT 116 cells, exposed 24 h to 48 h, 0.1 to 25 μM
In short: as §1

[11] = molecular target: DYRK1A (Homo sapiens, UniProt Q13627); experiment: DYRK1A kinase inhibition (Woodtide substrate)

T1 sequence (Q00535 whole entry): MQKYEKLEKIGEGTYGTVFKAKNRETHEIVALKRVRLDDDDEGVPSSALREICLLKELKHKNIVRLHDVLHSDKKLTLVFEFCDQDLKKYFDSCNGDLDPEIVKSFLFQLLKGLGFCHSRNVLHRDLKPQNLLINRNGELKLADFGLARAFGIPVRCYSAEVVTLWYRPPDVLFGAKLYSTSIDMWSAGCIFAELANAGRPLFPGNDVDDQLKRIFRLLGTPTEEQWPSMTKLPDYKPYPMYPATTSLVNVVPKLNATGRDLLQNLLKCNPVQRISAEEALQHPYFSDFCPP
T1 sequence (Q15078 99-307 partner limits assumed): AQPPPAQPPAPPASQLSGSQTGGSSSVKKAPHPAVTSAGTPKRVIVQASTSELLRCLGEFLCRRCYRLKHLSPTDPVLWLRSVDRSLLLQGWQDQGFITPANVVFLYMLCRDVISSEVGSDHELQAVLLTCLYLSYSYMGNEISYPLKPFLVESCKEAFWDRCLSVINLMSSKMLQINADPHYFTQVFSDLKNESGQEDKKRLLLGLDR

SMILES | IC50 [2] | melting point | IC50 [5] | IC50 [7] | IC50 [11] | IC50 [1] | IC50 [3] | IC50 [4] | IC50 [6] | IC50 [8] | IC50 [9] | IC50 [10]
COc1ccc(NC(=O)Nc2cccc3c2C2CCCCN2C3=O)cn1 (centres unmarked) [Compound 96, N-(6-Methoxypyridin-3-yl)-M-(6-oxo-1,2,3,4,6,10b-hexahydropyrido[2,1-a]isoindol-10-yl)urea] | 25 µM | 175 °C | 1.6 µM | 0.23 µM | – | 0.5 µM | 0.2 µM | 1.5 µM | 0.6 µM | 0.6 µM | 0.8 µM | 0.2 µM
O=C(Nc1cc(-c2ccccc2)on1)Nc1cccc2c1C1CCCCN1C2=O (centres unmarked) [Compound 25, 1-(6-oxo-1,2,3,4,6,10b-hexahydropyrido[2,1-a]isoindol-10-yl)-3-(5-phenyl-isoxazol-3-yl)urea] | > 10 µM | 248 °C | 1.5 µM | 0.27 µM | > 10 µM | 0.25 µM | 0.2 µM | 0.1 µM | 1.5 µM | 0.1 µM | 0.1 µM | 0.03 µM
O=C(Nc1cnccn1)Nc1cccc2c1C1CC3(CCN1C2=O)SCCS3 (centres unmarked) [Compound 17, 1-(6′-Oxo-3′,4′,6′,10b′-tetrahydro-1′H-spiro[[1,3]dithiolane-2,2′-pyrido[2,1-a]isoindole]-10′-yl)-3-(pyrazin-2-yl)urea] | 0.13 µM | 236 °C | 0.15 µM | 0.044 µM | > 10 µM | 0.1 µM | 0.15 µM | 0.8 µM | 0.4 µM | 0.6 µM | 0.5 µM | 0.1 µM
O=C1c2cccc(NC(=S)Nc3cnccn3)c2C2CCCCN12 (centres unmarked) [Compound 63, 1-(6-Oxo-1,2,3,4,6,10b-hexahydropyrido[2,1-a]isoindol-10-yl)-3-(pyrazin-2-yl)thiourea] | – | 204 °C | 26 µM | 8 µM | > 100 µM | > 25 µM | > 25 µM | > 25 µM | > 25 µM | > 25 µM | > 25 µM | > 25 µM
COC1CCN2C(=O)c3cccc(NC(=O)Nc4cnc(C)cn4)c3C2C1 (centres unmarked) [Compound 59, 1-(2-methoxy-6-oxo-1,2,3,4,6,10b-hexahydropyrido[2,1-a]isoindol-10-yl)-3-(5-methylpyrazin-2-yl)urea] | – | 140 to 142 °C | 0.32 µM | 0.14 µM | > 10 µM | 1.2 µM | 6 µM | 5 µM | 6 µM | 5 µM | 12 µM | 3 µM

Second part, led by results:

IC50 [2] | melting point | IC50 [5] | IC50 [7] | IC50 [11] | SMILES | IC50 [1] | IC50 [3] | IC50 [4] | IC50 [6] | IC50 [8] | IC50 [9] | IC50 [10]
0.22 µM | 242 °C | 0.24 µM | 0.033 µM | > 10 µM | O=C(Nc1ccccn1)Nc1cccc2c1C1CC3(CCN1C2=O)SCCS3 (centres unmarked) [Compound 16, 1-(6′-oxo-3′,4′,6′,10b′-tetrahydro-1′H-spiro[[1,3]dithiolane-2,2′-pyrido[2,1-a]isoindole]-10′-yl)-3-(pyridin-2-yl)urea] | 15 µM | 20 µM | > 25 µM | 25 µM | 6 µM | 15 µM | 10 µM
– | 218 to 220 °C | 0.04 µM | 0.043 µM | 3.4 µM | O=C(Nc1cccc(Br)n1)Nc1cccc2c1C1CCCCN1C2=O (centres unmarked) [Compound 19, 1-(6-Bromopyridin-2-yl)-3-(6-oxo-1,2,3,4,6,10b-hexahydropyrido[2,1-a]isoindol-10-yl)urea] | > 25 µM | > 25 µM | > 25 µM | > 25 µM | > 25 µM | > 25 µM | > 25 µM
